According to patent publication US20230340127A1, “METHODS AND COMPOSITIONS FOR CANCER TREATMENT BY INHIBITION OF FBXO44” (Sanford Burnham Prebys Medical Discovery Institute, priority 2022, published 2023):

Key:
[1] = tested on: cancer cell lines and patient-derived glioblastoma cultures; assay: Viability of cancer cells after F5446 treatment; assay type: cell-based, human; settings: F5446 for 48 hrs (FIG. 9G)
Protocol: Cell lines and culture conditions: all cancer cell lines were purchased from the American Tissue Culture Collection (ATCC) and grown in recommended culture media. Specifically, MDA-MB-231, BT-549, MCF7, A549, and H446 cells were cultured in RPMI 1640 (Corning), HEK293T, HEK293FT, and HeLa cells were cultured in DMEM (Corning), MDA-MB-231-luc cells were cultured in MEM (Corning), U2OS and HCT116 cells were cultured in McCoy's 5A (Corning). The above media were supplemented with 10% fetal bovine serum (FBS), 2 mM glutamine, and 100 U/mL penicillin and streptomycin. Patient-derived glioma stem cells (GSCs) were obtained (Xie et al., 2018) and cultured in Neurobasal medium (Thermo Fisher Scientific, #11360070) supplemented with B27 without vitamin A (Thermo Fisher Scientific, #A3353501), EGF, and bFGF (20 ng/mL each; R&D Systems), sodium pyruvate (Thermo Fisher Scientific, #11360070), and GlutaMAX (Thermo Fisher Scientific, #35050061). All cells were incubated at 37° C. in 5% CO2. The cell cultures were authenticated by short tandem repeat (STR) analysis.
To assess whether this epigenetic regulatory pathway could potentially be targeted for cancer treatment, SUV39H1 and its chemical inhibitor F5446 were used to perform experiments. IF, qRT-PCR, and growth curve experiments were performed as described in previous examples. […]

4T1 tumors = assay: 4T1 mammary tumors in syngeneic immunocompetent mice, F5446 plus anti-PD-1 antibody; assay type: in vivo, mouse
Protocol: 4T1 tumor experiment: 10^5 4T1 cells were inoculated into the mammary fat pads of 6- to 8-week-old female BALB/c mice (The Jackson Laboratory). Tumor size was measured twice weekly. After 22 days, mice were euthanized and portions of each tumor processed for flow cytometry and histological analysis. For antibody treatments, mice were administered 200 μg rat IgG2a isotype control (BioXCell no. BP0089) or anti-PD-1 (BioXCell no. BP0273) antibody via i.p. injection on days 15, 17, 19, 21 and 23 post-inoculation of 4T1 cells. For combination treatments, mice were administered vehicle (10% Cremophor EL in PBS) or F5446 at 10 mg/kg body weight via i.p. injection on days 12, 14, 16, 18, 20, and 22 post-inoculation of cells and administered 200 μg rat IgG2a isotype (control) or anti-PD-1 antibody via i.p. injection on days 15, 17, 19, 21, and 23 post-inoculation of 4T1 cells. Mouse survival was monitored with tumor volume exceeding 2000 mm^3, weight loss>20%, and decreasing behavioral conditions considered as endpoints.
To investigate the effects of pharmacologically targeting SUV39H1, F5446, on tumor growth and immunotherapy response, experiments using mouse model were performed as described in previous examples. Mice were also treated with F5446. Growth curve, survival curve, IHC, and qRT-PCR experiments were performed as described in previous examples.

COC(=O)c1cc2c(n1S(=O)(=O)c1ccc(Cl)cc1)C(=O)C(=O)c1[nH]cc(C(=O)OCc3ccccc3)c1-2 [F5446]
survival of cancer cell lines and patient-derived glioblastoma cultures [1]: reduced | sensitivity of 4T1 tumors to anti-PD-1 therapy (4T1 tumors; F5446 10 mg/kg i.p. combined with 200 μg anti-PD-1 antibody i.p. (FIGS. 12M-12O)): enhanced | mouse survival (4T1 tumors; F5446 combined with anti-PD-1 therapy, 4T1 tumors (FIG. 12O)): increased
